Experimental data reported in patent US9815796B2 (Merck Sharp & Dohme Corp., priority 2013, dated 2017).
Read-outs that look alike come from different tables or passages of the source.

What was measured:
Rhesus PDE2A3 = Rhesus PDE2A3 (Macaca mulatta, UniProt B3VTJ2); assay: PDE2 fluorescence polarization (IMAP FP) inhibition assay, rhesus enzyme; type: biochemical, rhesus macaque
In short: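 IMAP FP (mP from parallel and perpendicular fluorescence against substrate-only control) was read ≥1 h after adding binding reagent. The preceding 60 min room-temperature reaction contained FAM-cAMP (50 nM) and cGMP (1 uM) in pH 7.2 Tris buffer with MgCl2 and DTT. Enzyme was supernatant of sonicated AD293 cells expressing rhesus PDE2A3; compounds were 3-fold titrated, DMSO 1% final.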

human PDE2A1 = human PDE2A1 (Homo sapiens (Human), UniProt O00408); assay: IMAP FP PDE selectivity panel, human PDE2A1; type: biochemical
Sequence of human PDE2A1 (O00408 other isoform, or with tags, fused parts or gaps): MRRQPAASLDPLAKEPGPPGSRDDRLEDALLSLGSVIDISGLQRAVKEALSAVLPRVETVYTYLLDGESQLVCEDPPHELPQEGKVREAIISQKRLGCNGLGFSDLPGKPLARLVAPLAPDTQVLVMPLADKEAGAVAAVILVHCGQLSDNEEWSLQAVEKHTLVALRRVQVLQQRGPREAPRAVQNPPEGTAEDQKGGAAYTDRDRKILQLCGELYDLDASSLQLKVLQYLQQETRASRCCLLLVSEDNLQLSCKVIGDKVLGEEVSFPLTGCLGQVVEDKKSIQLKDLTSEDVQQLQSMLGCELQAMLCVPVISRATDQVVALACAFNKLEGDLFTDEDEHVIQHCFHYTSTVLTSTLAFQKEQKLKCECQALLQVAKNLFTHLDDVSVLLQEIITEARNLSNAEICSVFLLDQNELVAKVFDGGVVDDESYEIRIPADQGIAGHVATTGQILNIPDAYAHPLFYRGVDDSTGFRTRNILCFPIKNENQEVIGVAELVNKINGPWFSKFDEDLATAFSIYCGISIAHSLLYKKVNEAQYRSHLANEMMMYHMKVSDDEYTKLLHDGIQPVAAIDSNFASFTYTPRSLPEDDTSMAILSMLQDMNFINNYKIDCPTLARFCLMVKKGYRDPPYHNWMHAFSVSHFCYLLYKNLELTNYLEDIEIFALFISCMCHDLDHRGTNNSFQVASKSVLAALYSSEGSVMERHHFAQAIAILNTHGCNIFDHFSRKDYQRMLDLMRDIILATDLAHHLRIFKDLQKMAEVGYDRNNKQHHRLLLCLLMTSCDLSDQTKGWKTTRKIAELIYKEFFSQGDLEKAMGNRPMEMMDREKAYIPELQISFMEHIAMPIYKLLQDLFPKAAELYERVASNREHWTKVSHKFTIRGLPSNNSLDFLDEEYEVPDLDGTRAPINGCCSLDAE
In short: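 IMAP FP format: substrate 50 nM FAM-cAMP plus 1000 nM cGMP, enzyme (insect-cell GST-tagged human PDE2A1) at ~20% conversion, 60 min reaction at room temperature. Apparent inhibition constants calculated from parallel/perpendicular fluorescence with KM 10,000 nM.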

[1] = Rhesus PDE2, Lab B, read-out: Rhesus PDE2 Ki (nM) - Lab B
[2] = Human PDE2, Lab B, read-out: Human PDE2 Ki (nM) - Lab B
[3] = Rhesus PDE2, Lab A, read-out: Rhesus PDE2 Ki (nM) - Lab A
[4] = Human PDE2, Lab A, read-out: Human PDE2 Ki (nM) - Lab A

Sequence of Rhesus PDE2A3 (B3VTJ2 1-941): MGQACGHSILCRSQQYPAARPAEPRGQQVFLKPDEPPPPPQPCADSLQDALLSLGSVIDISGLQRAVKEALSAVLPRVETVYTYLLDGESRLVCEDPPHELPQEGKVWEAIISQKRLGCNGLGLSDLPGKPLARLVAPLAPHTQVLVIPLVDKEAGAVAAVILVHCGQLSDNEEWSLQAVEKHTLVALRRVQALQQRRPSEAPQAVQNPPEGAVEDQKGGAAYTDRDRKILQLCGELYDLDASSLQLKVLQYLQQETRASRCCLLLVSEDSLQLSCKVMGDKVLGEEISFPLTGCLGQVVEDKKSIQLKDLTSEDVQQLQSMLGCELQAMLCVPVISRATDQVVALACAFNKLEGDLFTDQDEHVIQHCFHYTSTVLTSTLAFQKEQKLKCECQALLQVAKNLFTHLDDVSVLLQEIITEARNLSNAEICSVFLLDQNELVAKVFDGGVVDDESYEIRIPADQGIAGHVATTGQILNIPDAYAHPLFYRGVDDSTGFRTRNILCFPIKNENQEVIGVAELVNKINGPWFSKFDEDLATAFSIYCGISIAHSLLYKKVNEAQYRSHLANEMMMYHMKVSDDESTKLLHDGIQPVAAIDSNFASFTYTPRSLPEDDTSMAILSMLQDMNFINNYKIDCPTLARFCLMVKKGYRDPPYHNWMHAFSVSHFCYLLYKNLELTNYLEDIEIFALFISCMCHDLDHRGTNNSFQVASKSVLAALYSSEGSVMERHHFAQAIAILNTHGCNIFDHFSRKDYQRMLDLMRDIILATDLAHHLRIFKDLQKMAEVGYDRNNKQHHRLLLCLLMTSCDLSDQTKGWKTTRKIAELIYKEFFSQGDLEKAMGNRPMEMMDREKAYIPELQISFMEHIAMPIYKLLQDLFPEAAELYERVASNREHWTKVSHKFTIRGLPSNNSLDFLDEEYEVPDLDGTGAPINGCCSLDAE

Compound	Ki (Rhesus PDE2A3; [1]) [nM]	Ki (human PDE2A1; [2]) [nM]	Ki (Rhesus PDE2A3; [3]) [nM]	Ki (human PDE2A1; [4]) [nM]
CC(C)[C@@H](NC(=O)c1cc(=O)[nH]c(-c2ccccc2)n1)c1ccc(C(F)(F)F)c(F)c1 [Example 383, N-{(1R)-1-[3-fluoro-4-(trifluoromethyl)phenyl]-2-methylpropyl}-6-oxo-2-phenyl-1,6-dihydropyrimidine-4-carboxamide]	4.2	2.9	–	–
C[C@@H](NC(=O)c1cc(=O)[nH]c(-c2ncccn2)n1)c1ccc(OC(F)(F)F)cc1F [Example 101, N-{(1R)-1-[2-fluoro-4-(trifluoromethoxy)phenyl]ethyl}-6-oxo-1,6-dihydro-2,2′-bipyrimidine-4-carboxamide]	28	33	28	~8.9
CC[C@@H](NC(=O)c1cc(=O)[nH]c(Cc2ccc(OC)c(F)c2)n1)c1ccc(OC(F)(F)F)cc1 [Example 529, 2-(3-fluoro-4-methoxybenzyl)-6-oxo-N-{(1R)-1-[4-(trifluoromethoxy)phenyl]propyl}-1,6-dihydropyrimidine-4-carboxamide]	2.2	2	–	–
CCc1nc(C(=O)N[C@H](C)c2ccc(C(F)(F)F)cc2)c(CC)c(=O)[nH]1 [Example 333, (R)-2,5-diethyl-6-oxo-N-(1-(4-(trifluoromethyl)phenyl)ethyl)-1,6-dihydropyrimidine-4-carboxamide]	–	–	89	80
C[C@@H](NC(=O)c1cc(=O)[nH]c(-c2ncccn2)n1)c1ccc(C(F)(F)F)cc1F [Example 99, N-[(1R)-1-[2-fluoro-4-(trifluoromethyl)phenyl]ethyl}-6-oxo-1,6-dihydro-2,2′-bipyrimidine-4-carboxamide]	–	–	58	24
CC(C)(NC(=O)c1cc(=O)[nH]c(C2CC2)n1)c1ccc(C(F)(F)F)cc1 [Example 293, 2-cyclopropyl-N-{1-methyl-1-[4-(trifluoromethyl)phenyl]ethyl}-6-oxo-1,6-dihydropyrimidine-4-carboxamide]	–	–	22	20
COc1ccc([C@@H](C)NC(=O)c2cc(=O)[nH]c(-c3ccccc3)n2)cc1 [Example 347, N-[(1R)-1-(4-methoxyphenyl)ethyl]-6-oxo-2-phenyl-1,6-dihydropyrimidine-4-carboxamide]	74	50	45	–
CC1Cc2cc(C(C)NC(=O)c3cc(=O)[nH]c(-c4ccccc4)n3)ccc2O1 (stereo not shown) [Example 379, N-[1-(2-methyl-2,3-dihydro-1-benzofuran-5-yl)ethyl]-6-oxo-2-phenyl-1,6-dihydropyrimidine-4-carboxamide]	–	114	69	–
COc1ccc(Cc2nc(C(=O)N[C@@H](c3ccc(S(F)(F)(F)(F)F)cc3)C3CC3)cc(=O)[nH]2)cc1 [Example 468, N-{(R)-cyclopropyl[4-(pentafluoro-λ^6-sulfanyl)phenyl]methyl}-2-(4-methoxybenzyl)-6-oxo-1,6-dihydropyrimidine-4-carboxamide]	2.8	2.3	–	–
C[C@@H](NC(=O)c1cc(=O)[nH]c(C2CC2)n1)c1ccc(S(F)(F)(F)(F)F)cc1 [Example 227, 2-cyclopropyl-6-oxo-N-{(1R)-1-[4-(pentafluoro-λ^6-sulfanyl)phenyl]ethyl}-1,6-dihydropyrimidine-4-carboxamide]	–	–	12	6.5
CCC(NC(=O)c1cc(=O)[nH]c(-c2ccccc2)n1)c1ccc(C(C)(C)C)cc1 (stereo not shown) [Example 163, N-[1-(4-tert-butylphenyl)propyl]-6-oxo-2-phenyl-1,6-dihydropyrimidine-4-carboxamide]	–	–	61	36
COc1ccc(Cc2nc(C(=O)N[C@@H](c3ccc(OC(F)(F)F)cc3)C(C)(C)C)cc(=O)[nH]2)cc1 [Example 467, N-{(1R)-2,2-dimethyl-1-[4-(trifluoromethoxy)phenyl]propyl}-2-(4-methoxybenzyl)-6-oxo-1,6-dihydropyrimidine-4-carboxamide]	0.62	0.49	–	–
COc1cc(CNC(=O)c2cc(=O)[nH]c(-c3ccccc3)n2)cc(OC)c1OC [Example 338, 6-oxo-2-phenyl-N-(3,4,5-trimethoxybenzyl)-1,6-dihydropyrimidine-4-carboxamide]	71	65	29	–
CSCC(NC(=O)c1cc(=O)[nH]c(-c2ccccc2)n1)c1ccc(C(F)(F)F)cc1 (stereo not shown) [Example 341, N-{2-(methylsulfanyl)-1-[4-(trifluoromethyl)phenyl]ethyl}-6-oxo-2-phenyl-1,6-dihydropyrimidine-4-carboxamide]	24	19	~11	–
Cc1nc(C(=O)NC(C)c2ccc(C(F)(F)F)cc2Cl)cc(=O)[nH]1 (stereo not shown) [Example 18, N-{1-[2-chloro-4-(trifluoromethyl)phenyl]ethyl}-2-methyl-6-oxo-1,6-dihydropyrimidine-4-carboxamide]	–	–	472	314
Cc1nc(C(=O)N[C@H](C)c2ccc(-c3ccccc3F)cc2)cc(=O)[nH]1 [Example 324, N-[(1R)-1-(2′-fluorobiphenyl-4-yl)ethyl]-2-methyl-6-oxo-1,6-dihydropyrimidine-4-carboxamide]	–	–	131	138
CC(C)(NC(=O)c1cc(=O)[nH]c(-c2ncccn2)n1)c1ccc(C(F)(F)F)c(F)c1 [Example 82, N-{1-[3-fluoro-4-(trifluoromethyl)phenyl]-1-methylethyl}-6-oxo-1,6-dihydro-2,2′-bipyrimidine-4-carboxamide]	–	–	153	82
Cc1nc(C(=O)N[C@H](C)c2ccc(-c3ccc(F)cc3)cc2)cc(=O)[nH]1 [Example 322, N-[(1R)-1-(4′-fluorobiphenyl-4-yl)ethyl]-2-methyl-6-oxo-1,6-dihydropyrimidine-4-carboxamide]	–	–	205	171
C[C@@H](NC(=O)c1cc(=O)[nH]c(-c2ccccc2)n1)c1ccc(C(F)(F)F)c(F)c1F [Example 408, N-{(1R)-1-[2,3-difluoro-4-(trifluoromethyl)phenyl]ethyl}-6-oxo-2-phenyl-1,6-dihydropyrimidine-4-carboxamide]	17	11	–	–
Cc1nc(C(=O)NC2(c3ccc(C(C)(C)C)cc3)CC2)cc(=O)[nH]1 [Example 623, N-[1-(4-tert-butylphenyl)cyclopropyl]-2-methyl-6-oxo-1,6-dihydropyrimidine-4-carboxamide]	29	31	–	–
CC(C)[C@@H](NC(=O)c1cc(=O)[nH]c(C2CC2)n1)c1ccc(SC(F)(F)F)c(F)c1 [Example 244, 2-cyclopropyl-N-[(1R)-1-{3-fluoro-4-[(trifluoromethyl)sulfanyl]phenyl}-2-methylpropyl]-6-oxo-1,6-dihydropyrimidine-4-carboxamide]	2.4	3	0.99	–
COc1ccc(Cc2nc(C(=O)N[C@@H](c3ccc(C(F)(F)F)cc3)C(C)(C)C)cc(=O)[nH]2)cc1F [Example 457, N-{(1R)-2,2-dimethyl-1-[4-(trifluoromethyl)phenyl]propyl}-2-(3-fluoro-4-methoxybenzyl)-6-oxo-1,6-dihydropyrimidine-4-carboxamide]	0.68	0.64	–	–
C[C@@H](NC(=O)c1cc(=O)[nH]c(-c2ncccn2)n1)c1ccc(S(F)(F)(F)(F)F)cc1 [Example 111, 6-oxo-N-{(1R)-1-[4-(pentafluoro-λ^6-sulfanyl)phenyl]ethyl}-1,6-dihydro-2,2′-bipyrimidine-4-carboxamide]	3.9	4.7	3.6	–
CSCC(NC(=O)c1cc(=O)[nH]c(C)n1)c1ccc(C(F)(F)F)cc1 (stereo not shown) [Example 131, 2-methyl-N-{2-(methylsulfanyl)-1-[4-(trifluoromethyl)phenyl]ethyl}-6-oxo-1,6-dihydropyrimidine-4-carboxamide]	–	–	170	123
Cc1nc(C(=O)N[C@H](C)c2ccc3ccccc3c2)cc(=O)[nH]1 [Example 16, 2-methyl-N-[(1R)-1-naphthalen-2-ylethyl]-6-oxo-1,6-dihydropyrimidine-4-carboxamide]	–	–	74	67
Cc1nc(C(=O)NC(C(=O)O)c2ccc(C(F)(F)F)cc2)cc(=O)[nH]1 (racemic) [Example 326, 2-(2-Methyl-6-oxo-1,6-dihydropyrimidine-4-carboxamido)-2-(4-(trifluoromethyl)phenyl)acetic acid]	–	–	70	67
CC(C)c1nc(C(=O)N[C@H](C)c2ccc(C(F)(F)F)cc2)cc(=O)[nH]1 [Example 137, 2-(1-methylethyl)-6-oxo-N-{(1R)-1-[4-(trifluoromethyl)phenyl]ethyl}-1,6-dihydropyrimidine-4-carboxamide]	–	–	411	231
Cc1nc(C(=O)NC2(c3ccc(C(F)(F)F)cc3)CCCC2)cc(=O)[nH]1 [Example 270, 2-methyl-6-oxo-N-{1-[4-(trifluoromethyl)phenyl]cyclopentyl}-1,6-dihydropyrimidine-4-carboxamide]	–	–	225	113
O=C(N[C@@H](c1ccc(C(F)(F)F)cc1)C1CC1)c1cc(=O)[nH]c(C2CC2)n1 [Example 213, 2-cyclopropyl-N-{(R)-cyclopropyl[4-(trifluoromethyl)phenyl]methyl}-6-oxo-1,6-dihydropyrimidine-4-carboxamide]	–	–	6.1	3.3
C[C@@H](NC(=O)c1cc(=O)[nH]c(-c2ncccn2)n1)c1ccc(C(F)(F)F)c(Cl)c1 [Example 110, N-{(1R)-1-[3-chloro-4-(trifluoromethyl)phenyl]ethyl}-6-pxo-1,6-dihydro-2,2′-bipyrimidine-4-carboxamide]	–	–	12	7.2
